Experiments:
animal model of POCD = experiment: Overall outcome in the animal model of POCD (abdominal surgery); type: in vivo, Wistar rats
Procedure: In this study, the effects of J147 in an animal model of POCD were investigated. Male Wistar rats (˜350 g) were randomly divided into 4 experimental groups; non-surgery; control abdominal surgery; surgery+acute J147 treatment (7 mg/rat by gavage, 4-5 hours before surgery); surgery+chronic J147 (500 mg/kg food, 1 week before surgery until the end of the study). Timed blood samples were collected. Days 9-11 post surgery, general behavior (Open field: OF) and cognitive performance (Novel Object/Novel Location Recognition: NOR/NLR; Morris Water Maze: MWM) were tested. Day 14, rats were sacrificed and blood and brain tissue were collected for further analyses. (Neuro)inflammation was examined by circulating cytokine levels and microglia activation in the brain. Within each cohort rats (n=12 per cohort) were equally divided over four experimental groups, including non-surgery, control surgery, surgery+acute J147 and surgery+chronic J147. Half of the non-surgery and control surgery groups received vehicle gavage and served as control for acute treatment. One week before surgery, chronic treatment J147 treatment started and continued until the end of the experiment. […] The first week post-surgery, rats were weighed daily and food intake was measured. […]

[1] = Plasma levels of J147 at the time of surgery; type: in vivo, Wistar rats; conditions: absence of an appropriate peak taken as zero
Procedure: Male Wistar rats (˜350 g) were randomly divided into 4 experimental groups; non-surgery; control abdominal surgery; surgery+acute J147 treatment (7 mg/rat by gavage, 4-5 hours before surgery); surgery+chronic J147 (500 mg/kg food, 1 week before surgery until the end of the study). Timed blood samples were collected. Days 9-11 post surgery, general behavior (Open field: OF) and cognitive performance (Novel Object/Novel Location Recognition: NOR/NLR; Morris Water Maze: MWM) were tested. Day 14, rats were sacrificed and blood and brain tissue were collected for further analyses. (Neuro)inflammation was examined by circulating cytokine levels and microglia activation in the brain.
One week before surgery, chronic treatment J147 treatment started and continued until the end of the experiment. The day of surgery, rats for acute treatment received their J147 (4-5 hours before surgery) by gavage, while the designated control rats received vehicle gavage. Rats were subjected to abdominal surgery, and allowed to recover. After that rats were housed individually. […] The first week post-surgery, rats were weighed daily and food intake was measured. […]
For chronic oral treatment, J147 was added to the food (Teklad 2018, Envigo) at a concentration of 500 mg/kg. […] After surgery food intake was measured daily during the last hour of the light phase. […]

SMILES: COc1cccc(/C=N/N(C(=O)C(F)(F)F)c2ccc(C)cc2C)c1 [J147]
- impaired cognitive aspects after surgery (animal model of POCD; chronic J147 administration): capable of preventing all impaired cognitive aspects after surgery
- conditions after surgery (body weight loss, behavior in the OF) (animal model of POCD; chronic treatment): generally improved conditions after surgery
- mean concentration of J147 in plasma during surgery ([1]; acute J147, 7 mg/rat by gavage 4-5 hours before surgery): 3.103 ng/mL
- concentration at 1 week ([1]; male, Wistar, rat, plasma, oral, chronic J147, 500 mg/kg food from 1 week before surgery, read-out: mean concentration of J147 in plasma during surgery): 0.233 ng/mL

Source: patent publication US20220273590A1, “COMPOUNDS FOR PREVENTION AND TREATMENT OF POST-OPERATIVE COGNITIVE DYSFUNCTION” (ABREXA PHARMACEUTICALS, INC., priority 2019, published 2022)
